The term melting point denotes the temperature, or range, at which the solid turns liquid.

This is an account of results in a melting point compilation (Tetko et al.).

For the molecule `CCCCc1cccc2ccccc12`, the melting point is -19.8 °C. With `Oc1cccc(-c2ccccc2)c1` the figure was 78 °C; with `CCCCCCCCCCCCCCCCOCCCCCCCCCCCCCCCC`, 55 °C. As for `CSc1nn(CO)c(=S)s1`, the figure is 72 to 74 °C. As to `COC(=O)c1ccc(S(=O)(=O)Cl)n1C`, the melting point was 79 to 81 °C. As for `Cc1nc(-c2cccc(C#N)c2)cs1`, the figure is 112 to 114 °C. With `COC(=O)[C@H]1OC(c2ccc(OC)c(OC)c2)([C@@H](C)Br)O[C@@H]1C(=O)OC` the figure was 97.3 °C; with `CC(C)CC(N)C(=O)Nc1ccc([N+](=O)[O-])cc1` (stereo not given), 90 °C.

Consider `NCc1cc(C(F)(F)F)cc(C(F)(F)F)c1`, for which the melting point worked out at 57 °C. With `Cc1nc(/C(C#N)=C/c2ccc(F)cc2)sc1/N=N/c1c(Br)cc(Br)cc1Br` the figure was 170 °C; with `Cc1sc(-c2ccccn2)nc1-c1ccccc1`, 86 °C; with `CC(CC1CCCCC1)CC1CCCCC1`, 0.6 °C. With `CCCCCCCC(=O)CCC` the figure was 4.5 °C; with `O=C1C(=C2c3ccccc3C(=O)C2c2cc(Cl)c([N+](=O)[O-])cc2[N+](=O)[O-])C(=O)c2ccccc21` (stereo not given), 218 °C. With `O=C(O)c1ccc(Cl)cc1Cl` the figure was 164 °C; with `c1cnc(SSc2ncccn2)nc1`, 139 to 141 °C; with `CN(C)C(=O)C(CCN1CCC(O)(c2ccc(Cl)cc2)CC1)(c1ccccc1)c1ccccc1`, 228 °C. In the case of `O=C(O)C=Cc1c[nH]cn1`, the melting point is 225 °C. As for `O=C(O)c1cc(S(=O)(=O)Cl)ccc1O`, the figure is 168 to 170 °C; as for `NC(=O)CS(=O)(=O)c1ccccc1`, 156 °C. With `CC(C)(C)OC(=O)N1CCC(c2nc(C(=O)O)cs2)CC1` the figure was 162 to 166 °C; with `O=C(Nc1ccc(F)cc1)c1cccc(Oc2cccc(C(F)(F)F)c2)n1`, 107 °C; with `CS(=O)(=O)c1csc(C(=O)O)c1Cl`, 234 to 236 °C.

In the case of `CC(C)CCCC(C)C1CCC2C3CC=C4CC(OC(=O)Cl)CCC4(C)C3CCC12C` (stereo not given), the melting point stood at 118 °C.

The molecule `Brc1ccc2nccnc2c1` yielded a melting point of 54 to 55 °C. As for `CC(=O)c1ccc(-c2ccccc2[N+](=O)[O-])o1`, the figure is 79 °C. As for `Cc1cc(C)c2c(-c3ccccc3)nn(-c3ccccc3)c2n1`, the figure is 114 °C; as for `O=C(NC(=O)c1c(F)cccc1F)Nc1cc(Cl)c(Oc2ncc(C(F)(F)F)cc2Cl)c(Cl)c1`, 223 °C; as for `CC12CCC3C(CCC4CC5(CCC43C)OCCO5)C1CCC2O` (stereo not given), 212 °C. As for `O=CC(C=O)c1cnccn1`, the figure is 202 to 207 °C. In turn, `COc1nccnc1NS(=O)(=O)c1ccc(N)cc1` returned a melting point of 176 °C. With `Cc1nc(-c2ccc(S(=O)(=O)NN)cc2)c(-c2ccc(S(=O)(=O)NN)cc2)o1` the figure was 178 to 180 °C; with `CN(C)S(=O)(=O)c1cccc(C(=O)c2ccccc2)c1`, 82 to 84 °C. Take `Cc1nc2ccc(N)cc2s1`: the melting point is 122 to 124 °C. With `C1CC2CCCC(C1)C2` the figure was 146 °C. The molecule `C=CCOC(=O)OCCOCCOC(=O)OCC=C` registered a melting point of -4 °C. With `O=[N+]([O-])c1ccc(Oc2c(Cl)cccc2Cl)c(Cl)c1` the figure was 136 to 138 °C. For `O=Cc1cccc2cccc(C(=O)O)c12`, the melting point lay within 160 to 167 °C. As for `COc1ccc(-c2nnc3n2NC(c2ccccc2O)S3)cc1` (stereo not given), the figure is 220 °C; as for `Nc1ncn(C2OC(CO)C(O)C2O)c(=O)n1` (stereo not given), 229 °C; as for `FC(F)(F)c1cccc(Br)n1`, 49.5 °C. With `Cc1c(F)ccc(C(=O)O)c1Cl` the figure was 188 °C; with `COc1ccc(C(=O)O)c(Cl)c1OC`, 193 to 196 °C.

Regarding `CC1(C)CCC2(C(=O)O)CCC3(C)C(=CCC4C5(C)CCC(O)C(C)(C=O)C5CCC43C)C2C1` (stereo not given), the melting point was determined as 275 °C. `CCc1ccccc1Cc1ccccc1N` registered a melting point of 35 °C. With `N#Cc1cc(F)cc(Cl)c1` the figure was 57 °C. With `Cc1nc(I)c(I)[nH]1` the figure was 194 to 195 °C; with `CCOc1ccc(NS(=O)(=O)c2ccc(N)cc2)nn1`, 183 °C; with `Cc1cc(C)nc(NNC=Cc2ccc([N+](=O)[O-])cc2)n1`, 183 to 184 °C.

`CC1(C)OC(=O)C2(CC2)C(=O)O1` returned a melting point of 65 °C.

As for `NC(=O)c1ccc(F)cc1Cl`, the melting point fell in the range of 152 to 154 °C. With `O=[N+]([O-])c1cccc2c(/C=N\c3ccccc3)cccc12` the figure was 83 to 84 °C; with `O=C1Cc2cccc(F)c21`, 41 °C. With `Cc1nc(/C(C#N)=C/c2ccc(O)cc2)sc1/N=N/c1ccc(Cl)cc1` the figure was 230 °C; with `CCC(C)c1ccccc1O` (stereo not given), 16 °C. With `O=C1c2[nH]c3ccc(Br)cc3c2CCN1Cc1ccc(Cl)cc1` the figure was 233 °C; with `NC(=C(N)c1ccccc1)c1ccccc1`, 108 °C.

Turning to `O=S(O)c1ccc(Cl)cc1`, the melting point came to 99 °C. With `CC(C)OC(=O)CCCCC(=O)OC(C)C` the figure was -1.1 °C; with `NNC(=O)CNS(=O)(=O)c1cccc2nsnc12`, 151 to 153 °C.

`NC(=S)Nc1ccc(F)cc1` came in with a melting point of 162 to 167 °C.

With `CC(=O)OC1CCC2(C)C(=CC(=O)C3C4CCC(=O)C4(C)CCC32)C1` (stereo not given), the melting point amounted to 182 °C. For `Cc1ccncc1C(=O)NN`, the melting point amounted to 177 °C. With `C[Si](C)(C)C1=CC2CCCCC2C1=O` (stereo not given) the figure was 59 °C; with `CCNc1ccc2ccccc2c1N=Nc1ccc(N=Nc2ccccc2)cc1`, 130 °C; with `CC(=O)ON(/C=C1\C(=O)C2(C)CCC1C2(C)C)c1ccccc1` (stereo not given), 162 to 164 °C. With `COc1ccccc1N/N=C(\C#N)c1nc2ccccc2n1C` the figure was 200 to 202 °C; with `CCOc1ccc(CO)cc1OC`, 54 to 59 °C; with `CC1(C)C(O)C(C)(C)C1O` (stereo not given), 126 to 134 °C. As for `CCCCOC(=O)C1(O)c2ccccc2-c2ccccc21`, the figure is 71 °C; as for `O=Cc1cc(Cl)ccc1[N+](=O)[O-]`, 75 to 77 °C; as for `CC(=O)Nc1ccc(C=Cc2ccc(NC(C)=O)cc2)cc1`, 322 °C. Consider `O=C(Cl)C=Cc1ccccc1Cl`, for which the melting point came out at 38 °C.

As to `Cc1cccc(C(=O)CC#N)c1`, the melting point is 73 to 75 °C. As for `NC(CSCc1ccccc1)C(=O)Nc1ccc([N+](=O)[O-])cc1` (stereo not given), the figure is 100 to 102 °C; as for `CCSc1nc(NC(C)C)nc(NC(C)C)n1`, 105 °C; as for `S=C(c1ccc2c(c1)OCO2)N1CCCCC1`, 113 °C.

For `NC(=NO)c1ccccc1OC(F)(F)F`, the melting point fell in the range of 99 to 101 °C. With `CCCCCCCCCCC(Br)C(=O)O` (stereo not given) the figure was 32 °C. In turn, `Cc1ccc2c(c1)CCCN2` displayed a melting point of 35 °C. As for `COc1ccc(C(=O)CCCCl)cc1`, the figure is 32 °C.

In the case of `CCCCc1c(C)nc(N)nc1Cl`, the melting point stood at 162 °C. In the case of `Cc1onc(-c2c(Cl)cccc2Cl)c1C(N)=S`, the melting point was 173 to 176 °C.

As to `O=[N+]([O-])c1ccc(C=Cc2cccc3ccccc23)c([N+](=O)[O-])c1`, the melting point amounted to 228 °C. As for `Cn1c(=O)on(-c2ccc(Cl)c(Cl)c2)c1=O`, the figure is 123 °C. As for `OCC1CCC(n2cnc3c(O)ncnc32)O1` (stereo not given), the figure is 175 °C; as for `CCN(CC)c1ccc(C(c2ccc(N(CC)CC)cc2C)c2ccc(N(CC)CC)cc2C)c(C)c1`, 163 to 165 °C. Molecule `CC1(C(=O)O)CCC(C=Cc2ccccc2)C1(C)C` (stereo not given) displayed a melting point of 124 °C. `Cc1ccc(N)c(Cl)c1`: the melting point turned out to be 7 °C. As for `Brc1nc(Br)c(Br)[nH]1`, the figure is 208 to 212 °C. With `CC1(C)OC(=O)C(=C2CCCCCN2)C(=O)O1` the figure was 147 to 149 °C; with `CCC(C)C(=O)NC1CCC(=O)N(CCc2ccccc2)C1=O` (stereo not given), 108 °C; with `CC(=O)Nc1cc(CCNC(=O)c2ccccc2)cc(NC(C)=O)c1CCNC(=O)c1ccccc1`, 268 °C. As for `CC(O)C(O)C(O)C(O)C=O` (stereo not given), the figure is 122 °C. For the molecule `CC#CC(C)C`, the melting point was -110 °C. With `O=C1CCc2ccccc2N1` the figure was 164 °C; with `CCN(C(=O)N(CC)c1ccccc1)c1ccccc1`, 79 °C. As for `O=C(Cl)c1ccc2snnc2c1`, the figure is 93 to 96 °C; as for `FC(F)(F)c1ccc2[nH]ccc2c1`, 69 °C; as for `CC(=O)N[Si](C)(C)C`, 41 °C. As for `OCC1CC1`, the figure is -60 °C; as for `CC(O)C1CCC2C3CCC4CC(O)CCC4(C)C3CCC12C` (stereo not given), 245 °C; as for `CCOC(=O)C1=C(C)N(C)C(=S)NC1c1ccccc1` (stereo not given), 147 °C. As to `Cc1cccc(N/N=C2/C(=O)N(c3ccccc3)N=C2C(F)(F)F)c1C`, the melting point is 136 °C.

In turn, `CSc1nc(=O)n(CCO)c2c1CCC2` yielded a melting point of 193 to 195 °C. As for `Fc1cnccc1I`, the figure is 88 °C; as for `CCc1cccc(CC)c1N(COC)C(=O)CCl`, 41 °C; as for `N#Cc1c(-c2cccs2)cc(-c2ccco2)[nH]c1=O`, 318 to 320 °C. As for `CC(=NO)c1ccco1`, the figure is 104 to 105 °C; as for `O=[N+]([O-])c1ccccc1-c1onc(-c2ccccc2)c1-c1ccccc1`, 127 °C.
